Measurements as given in ChEMBL document CHEMBL3046894, “Synthesis and Herbicidal Activity of Pyrimidinyl Salicylic and Thiosalicylic Acids” (J Pestic Sci, 1996).
Calls of active or inactive are those of the source. No cut-off for these calls is given here.

Experiments:
Gossypium hirsutum [1] = assay: Post-emergence phytotoxicity against Gossypium hirsutum (cotton) assessed as mortality per 10 acre; format: organism-based; details: in vivo
[2] = (§1) Pre-emergence phytotoxicity against Glycine max (soybean) assessed as mortality at 6.3 g a.i/10 a; format: organism-based; details: in vivo, 6.3 g a.i/10 a, read-out: mortality
Echinochloa crus-galli [3] = assay: Post-emergence herbicidal activity against Echinochloa crus-galli (barnyard grass) assessed as mortality at 6.3 g a.i/10 a applied 11 days after germination as foliar spray; format: functional; details: 264 h
Echinochloa crus-galli [4] = assay: Post-emergence herbicidal activity against Echinochloa crus-galli (barnyard grass) assessed as mortality at 1.6 g a.i/10 a applied 11 days after germination as foliar spray; format: functional; details: 264 h
Echinochloa crus-galli [5] = assay: Pre-emergence herbicidal activity against Echinochloa crus-galli (barnyard grass) assessed as growth inhibition at 25 g a.i/10 a; format: functional, organism-based
Gossypium hirsutum [6] = assay: Pre-emergence phytotoxicity against Gossypium hirsutum (cotton) assessed as mortality at 6.3 g a.i/10 a; format: organism-based; details: in vivo, other
Ipomoea lacunosa [7] = assay: Post-emergence herbicidal activity against Ipomoea lacunosa assessed as mortality per 10 acre; format: functional
[8] = Pre-emergence phytotoxicity against Zea mays (maize) assessed as mortality at 1.6 g a.i/10 a; format: organism-based; details: in vivo, 1.6 g a.i/10 a, read-out: mortality
Xanthium strumarium [9] = assay: Post-emergence herbicidal activity against Xanthium strumarium (cocklebur) assessed as mortality per 10 acre; format: functional
Abutilon theophrasti [10] = assay: Post-emergence herbicidal activity against Abutilon theophrasti (velvetleaf) assessed as mortality at 1.6 g a.i/10 a applied 11 days after germination as foliar spray; format: functional; details: 264 h
Ipomoea lacunosa [11] = assay: Pre-emergence herbicidal activity against Ipomoea lacunosa assessed as mortality per 10 acre; format: functional
Echinochloa crus-galli [12] = assay: Pre-emergence herbicidal activity against Echinochloa crus-galli (barnyard grass) assessed as mortality at 6.3 g a.i/10 a; format: functional; details: Echinochloa crus-galli, pre-emergence
Persicaria nodosa [13] = assay: Pre-emergence herbicidal activity against Persicaria nodosa assessed as growth inhibition at 25 g a.i/10 a; format: functional, organism-based
Persicaria nodosa [14] = assay: Post-emergence herbicidal activity against Persicaria nodosa assessed as growth inhibition at 25 g a.i/10 a applied 11 days after germination as foliar spray; format: functional, organism-based
Digitaria sanguinalis [15] = assay: Post-emergence herbicidal activity against Digitaria sanguinalis (hairy crabgrass) assessed as growth inhibition at 25 g a.i/10 a applied 11 days after germination as foliar spray; format: functional, organism-based
Persicaria nodosa [16] = assay: Pre-emergence herbicidal activity against Persicaria nodosa assessed as mortality per 10 acre; format: functional
Persicaria nodosa [17] = assay: Post-emergence herbicidal activity against Persicaria nodosa assessed as mortality per 10 acre; format: functional
Amaranthus retroflexus [18] = assay: Post-emergence herbicidal activity against Amaranthus retroflexus assessed as mortality per 10 acre; format: functional
Glycine max [19] = assay: Pre-emergence phytotoxicity against Glycine max (soybean) assessed as mortality at 1.6 g a.i/10 a; format: organism-based; details: in vivo, other
[20] = Post-emergence phytotoxicity against Glycine max (soybean) assessed as mortality at 1.6 g a.i/10 a applied 11 days after germination as foliar spray; format: organism-based; details: in vivo, 1.6 g a.i/10 a
Echinochloa crus-galli [21] = assay: Post-emergence herbicidal activity against Echinochloa crus-galli (barnyard grass) assessed as growth inhibition at 25 g a.i/10 a applied 11 days after germination as foliar spray; format: functional, organism-based
Amaranthus retroflexus [22] = assay: Post-emergence herbicidal activity against Amaranthus retroflexus assessed as growth inhibition at 25 g a.i/10 a applied 11 days after germination as foliar spray; format: functional, organism-based
[23] = Post-emergence phytotoxicity against Zea mays (maize) assessed as mortality at 1.6 g a.i/10 a applied 11 days after germination as foliar spray; format: organism-based; details: in vivo, 1.6 g a.i/10 a
Gossypium hirsutum [24] = assay: Pre-emergence phytotoxicity against Gossypium hirsutum (cotton) assessed as mortality per 10 acre; format: organism-based; details: in vivo
Cyperus iria [25] = assay: Post-emergence herbicidal activity against Cyperus iria assessed as growth inhibition at 25 g a.i/10 a applied 11 days after germination as foliar spray; format: functional, organism-based
Abutilon theophrasti [26] = assay: Pre-emergence herbicidal activity against Abutilon theophrasti (velvetleaf) assessed as mortality at 6.3 g a.i/10 a; format: functional; details: Abutilon theophrasti, pre-emergence
Gossypium hirsutum [27] = assay: Pre-emergence phytotoxicity against Gossypium hirsutum (cotton) assessed as mortality at 1.6 g a.i/10 a; format: organism-based; details: in vivo, other
Amaranthus retroflexus [28] = assay: Pre-emergence herbicidal activity against Amaranthus retroflexus assessed as growth inhibition at 25 g a.i/10 a; format: functional, organism-based
Gossypium hirsutum [29] = assay: Post-emergence phytotoxicity against Gossypium hirsutum (cotton) assessed as mortality at 6.3 g a.i/10 a applied 11 days after germination as foliar spray; format: organism-based; details: in vivo, other, 264 h
Amaranthus retroflexus [30] = assay: Pre-emergence herbicidal activity against Amaranthus retroflexus assessed as mortality per 10 acre; format: functional
Cyperus iria [31] = assay: Pre-emergence herbicidal activity against Cyperus iria assessed as growth inhibition at 25 g a.i/10 a; format: functional, organism-based
Gossypium hirsutum [32] = assay: Post-emergence phytotoxicity against Gossypium hirsutum (cotton) assessed as mortality at 1.6 g a.i/10 a applied 11 days after germination as foliar spray; format: organism-based; details: in vivo, other, 264 h
Echinochloa crus-galli [33] = assay: Post-emergence herbicidal activity against Echinochloa crus-galli (barnyard grass) assessed as mortality per 10 acre; format: functional
Xanthium strumarium [34] = assay: Pre-emergence herbicidal activity against Xanthium strumarium (cocklebur) assessed as mortality per 10 acre; format: functional
Chenopodium album [35] = assay: Post-emergence herbicidal activity against Chenopodium album assessed as growth inhibition at 25 g a.i/10 a applied 11 days after germination as foliar spray; format: functional, organism-based
Echinochloa crus-galli [36] = assay: Pre-emergence herbicidal activity against Echinochloa crus-galli (barnyard grass) assessed as mortality per 10 acre; format: functional
Abutilon theophrasti [37] = assay: Post-emergence herbicidal activity against Abutilon theophrasti (velvetleaf) assessed as mortality at 6.3 g a.i/10 a applied 11 days after germination as foliar spray; format: functional; details: 264 h
Chenopodium album [38] = assay: Pre-emergence herbicidal activity against Chenopodium album assessed as growth inhibition at 25 g a.i/10 a; format: functional, organism-based
Digitaria sanguinalis [39] = assay: Pre-emergence herbicidal activity against Digitaria sanguinalis (hairy crabgrass) assessed as growth inhibition at 25 g a.i/10 a; format: functional, organism-based
Glycine max [40] = assay: as §1; format: organism-based; details: in vivo, other
Ipomoea lacunosa [41] = assay: Pre-emergence herbicidal activity against Ipomoea lacunosa assessed as mortality at 6.3 g a.i/10 a; format: functional; details: Ipomoea lacunosa, pre-emergence
Xanthium strumarium [42] = assay: Pre-emergence herbicidal activity against Xanthium strumarium (cocklebur) assessed as mortality at 1.6 g a.i/10 a; format: functional; details: Xanthium strumarium, pre-emergence
Xanthium strumarium [43] = assay: Post-emergence herbicidal activity against Xanthium strumarium (cocklebur) assessed as mortality at 1.6 g a.i/10 a applied 11 days after germination as foliar spray; format: functional; details: 264 h
Ipomoea lacunosa [44] = assay: Pre-emergence herbicidal activity against Ipomoea lacunosa assessed as mortality at 1.6 g a.i/10 a; format: functional; details: Ipomoea lacunosa, pre-emergence
Ipomoea lacunosa [45] = assay: Post-emergence herbicidal activity against Ipomoea lacunosa assessed as mortality at 1.6 g a.i/10 a applied 11 days after germination as foliar spray; format: functional; details: 264 h

Structure (SMILES)	ED20 (Gossypium hirsutum [1])	mortality at 63 g/ha (Echinochloa crus-galli [3])	growth inhibition (GI) (Echinochloa crus-galli [5])	Activity (Gossypium hirsutum [6])	ED90 (Ipomoea lacunosa [7])	mortality [8]	ED90 (Xanthium strumarium [9])	ED90 (Ipomoea lacunosa [11])	mortality at 63 g/ha (Echinochloa crus-galli [12])	growth inhibition (GI) (Persicaria nodosa [13])	growth inhibition (GI) (Persicaria nodosa [14])	growth inhibition (GI) (Digitaria sanguinalis [15])	ED90 (Persicaria nodosa [16])	ED90 (Persicaria nodosa [17])	ED90 (Amaranthus retroflexus [18])	Activity (Glycine max [19])	mortality at 264 h [20]	growth inhibition (GI) (Echinochloa crus-galli [21])	growth inhibition (GI) (Amaranthus retroflexus [22])	mortality at 264 h [23]	further results
COc1cc(OC)nc(Oc2cccc(Cl)c2C(=O)O)n1	0.2 gAi	> 90%	Active	Non-toxic	0.8 gAi	> 90%	1.5 gAi	25 gAi	> 90%	Active	Active	Active	0.4 gAi	0.2 gAi	0.2 gAi	Toxic	> 90%	Active	Active	> 90%	mortality [2]: > 90%; mortality at 16 g/ha (Echinochloa crus-galli [4]): > 90%; mortality at 16 g/ha (Abutilon theophrasti [10]): > 90%; ED20 (Gossypium hirsutum [24]): Toxic; growth inhibition (GI) (Cyperus iria [25]): Active; mortality at 63 g/ha (Abutilon theophrasti [26]): > 90%; Activity (Gossypium hirsutum [27]): Non-toxic; growth inhibition (GI) (Amaranthus retroflexus [28]): Active; Activity (Gossypium hirsutum [29]): Toxic; ED90 (Amaranthus retroflexus [30]): 0.4 gAi; growth inhibition (GI) (Cyperus iria [31]): Active; Activity (Gossypium hirsutum [32]): Toxic; ED90 (Echinochloa crus-galli [33]): 1.5 gAi; ED90 (Xanthium strumarium [34]): 25 gAi; growth inhibition (GI) (Chenopodium album [35]): Active; ED90 (Echinochloa crus-galli [36]): inactive; mortality at 63 g/ha (Abutilon theophrasti [37]): > 90%; growth inhibition (GI) (Chenopodium album [38]): Active; growth inhibition (GI) (Digitaria sanguinalis [39]): Active
COc1cc(OC)nc(Oc2cccc(C)c2C(=O)O)n1	0.4 gAi	> 90%	Active	Non-toxic	100 gAi	> 90%	25 gAi	>100 gAi	> 90%	Active	Active	Active	Active	0.4 gAi	0.2 gAi	Toxic	> 90%	Active	Active	> 90%	Activity (Glycine max [40]): Toxic; mortality at 63 g/ha (Ipomoea lacunosa [41]): < 5%; mortality at 16 g/ha (Xanthium strumarium [42]): < 5%; mortality at 16 g/ha (Xanthium strumarium [43]): < 5%; mortality at 16 g/ha (Ipomoea lacunosa [44]): < 5%; mortality at 16 g/ha (Ipomoea lacunosa [45]): < 5%; ED20 (Gossypium hirsutum [24]): Toxic; growth inhibition (GI) (Cyperus iria [25]): Active; growth inhibition (GI) (Amaranthus retroflexus [28]): Active; Activity (Gossypium hirsutum [29]): Non-toxic; ED90 (Amaranthus retroflexus [30]): inactive; growth inhibition (GI) (Cyperus iria [31]): Active; Activity (Gossypium hirsutum [32]): Non-toxic; ED90 (Echinochloa crus-galli [33]): inactive; ED90 (Xanthium strumarium [34]): >100 gAi; growth inhibition (GI) (Chenopodium album [35]): Active; ED90 (Echinochloa crus-galli [36]): Active; mortality at 63 g/ha (Abutilon theophrasti [37]): > 90%; growth inhibition (GI) (Chenopodium album [38]): Active; growth inhibition (GI) (Digitaria sanguinalis [39]): Active
